The values below come from PubChem BioAssay (NCI).

Some test systems named below: 786-0 renal; UACC-257 melanoma; SK-MEL-5 melanoma; NCI-H226 lung; CCRF-CEM leukemia; NCI-H23 lung; RXF 393 renal; T-47D breast; NCI/ADR-RES ovarian; PC-3 prostate.
Test in all cases: DTP human tumour cell line panel, 48 h

Molecules are shown by their SMILES.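 Interpolation was linear, between the two tested concentrations surrounding the appropriate level; five concentrations were tested over 48 hours in 96-well plates. The concentration for 50% growth inhibition is given as GI50. The concentration for full growth arrest is given as TGI.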 Some results are limits rather than exact numbers.

`COC(=O)C12C3C4C1C1C2C3C41C(=O)N(C(C)C)C(C)C` (stereo not given): the TGI in the test on 786-0 renal, with UACC-257 melanoma, in the test on SK-MEL-5 melanoma, in the test on NCI-H226 lung, in the test on CCRF-CEM leukemia and in the test on NCI-H23 lung was greater than 100 µM in each case.
As for `[N-]=[N+]=Nc1c(Br)c(=O)[nH]c(=O)n1COCCO`, the TGI in the test on 786-0 renal, with RXF 393 renal, in the test with UACC-257 melanoma, in the test with SK-MEL-5 melanoma, in the test with CCRF-CEM leukemia and in the test on NCI-H23 lung was greater than 100 µM in each case.
In the case of `c1ccc(-c2cnc3nc4ccccc4nc3n2)cc1`, the TGI – broadly, the concentration at which net growth stops – in the test on 786-0 renal was greater than 100 µM; in the test on T-47D breast, 47 µM; with UACC-257 melanoma, 8.62 µM; in the test with SK-MEL-5 melanoma, 12.3 µM; in the test on NCI-H226 lung, 19.7 µM; in the test with CCRF-CEM leukemia, 10.2 µM. In addition, the values for the TGI with NCI-H23 lung and in the test with NCI/ADR-RES ovarian were 22 µM and 39 µM, respectively.
As to `O=C1C2=C(c3ccccc31)C(c1ccc(F)cc1)N1C(=O)CCSC1=N2` (stereo not given), the concentration for total growth inhibition (TGI) with 786-0 renal, in the test on UACC-257 melanoma, with SK-MEL-5 melanoma, in the test with NCI-H226 lung, in the test with CCRF-CEM leukemia and with NCI-H23 lung was greater than 100 µM in each case.
As to `COC(=O)/C(=N/O)C(C(=O)OC)C(=O)C(=O)Nc1c(Cl)cc(C)cc1S(=O)(=O)O` (stereo not given), the TGI in the test on 786-0 renal, in the test with RXF 393 renal, with UACC-257 melanoma, in the test with SK-MEL-5 melanoma, in the test on NCI-H226 lung and in the test with CCRF-CEM leukemia was greater than 100 µM in each case. This molecule registered a concentration for total growth inhibition (TGI) in the test with NCI-H23 lung greater than 100 µM.
For `O=C(O)Cc1cc(=O)[nH]c2c1C(=O)CCC2`, the total growth inhibition concentration (TGI) with 786-0 renal, with RXF 393 renal, with UACC-257 melanoma, with SK-MEL-5 melanoma, in the test on NCI-H226 lung and in the test with CCRF-CEM leukemia was greater than 100 µM in each case. The molecule further yielded a TGI in the test with NCI-H23 lung greater than 100 µM.
Regarding `O=C1C2=C(c3ccccc31)C(c1ccc(Cl)cc1)NC(=S)N2` (stereo not given), the concentration for total growth inhibition (TGI) was 34 µM in the test on 786-0 renal; greater than 100 µM with UACC-257 melanoma; greater than 100 µM with SK-MEL-5 melanoma; 67.7 µM with NCI-H226 lung; 54.6 µM with CCRF-CEM leukemia; 40.5 µM in the test with NCI-H23 lung.
As for `COc1cc(/C=C\c2cc(OC)c(OC)c(OC)c2)cc(NS(=O)(=O)c2cccc(Cl)c2)c1OC`, the GI50 (commonly the concentration that inhibits growth by half) in the test on 786-0 renal was 0.0601 µM; with T-47D breast, 39.5 µM; in the test on RXF 393 renal it was 0.338 µM; with UACC-257 melanoma, 20.3 µM; with SK-MEL-5 melanoma, 0.229 µM; in the test with NCI-H226 lung it was 0.311 µM. In addition, the values for the GI50 in the test with CCRF-CEM leukemia, in the test with NCI-H23 lung and with PC-3 prostate were 0.0492 µM, 0.386 µM and 0.0452 µM, respectively. For the same molecule, the total growth inhibition concentration (TGI) with 786-0 renal is greater than 100 µM; in the test on T-47D breast it was greater than 100 µM; in the test on RXF 393 renal, greater than 100 µM; in the test on UACC-257 melanoma, greater than 100 µM; with SK-MEL-5 melanoma, 0.519 µM; in the test on NCI-H226 lung, greater than 100 µM. In addition, the TGI in the test with CCRF-CEM leukemia, in the test on NCI-H23 lung and in the test on PC-3 prostate was greater than 100 µM in each case.
With `Cc1cc(Cl)ccc1NC(=O)CCCC(=O)C(C(=O)c1ccccc1)c1ccccc1` (stereo not given), the total growth inhibition concentration (TGI) in the test with 786-0 renal, in the test with UACC-257 melanoma, in the test with CCRF-CEM leukemia and in the test with NCI-H23 lung was greater than 100 µM throughout.
Take `CC(=O)O[C@H]1C(=O)[C@@]2(C)C(C(OC(=O)c3ccccc3)[C@]3(O)CC(OC(=O)C(O)C(NC(=O)c4ccccc4)c4ccc(C)cc4)C(C)=C1C3(C)C)[C@]1(OC(C)=O)CO[C@@H]1C[C@@H]2O` (stereo not given in full): the TGI is 6.68 µM with 786-0 renal; 0.13 µM in the test with RXF 393 renal; greater than 25 µM in the test with UACC-257 melanoma; 9.81 µM in the test on CCRF-CEM leukemia; 21.8 µM with NCI-H23 lung.
Take `COc1cc2c3c(c1OC)Oc1ccc(cc1)CC1c4c(cc(OC)c(OC)c4Oc4ccc(cc4)CC3N(C)CC2)CCN1C` (stereo not given): the TGI in the test on 786-0 renal worked out at 53 µM; in the test on RXF 393 renal, 40.3 µM; with UACC-257 melanoma it was 28.6 µM; in the test on SK-MEL-5 melanoma, 31.7 µM; in the test on NCI-H226 lung, 55.5 µM; in the test with CCRF-CEM leukemia, 55.1 µM. The same molecule returned a TGI in the test on NCI-H23 lung greater than 100 µM.
Take `CCOC(=O)NC(=O)c1cn(C2OC(CO)C(O)C2O)c(=O)[nH]c1=O` (stereo not given): the TGI in the test with 786-0 renal, with RXF 393 renal, in the test with UACC-257 melanoma, in the test with SK-MEL-5 melanoma and in the test with NCI-H226 lung was greater than 100 µM each time.
In the case of `COC(=O)c1nn(C(=N)c2ccc(Cl)cc2)c2c1CCCCC2`, the total growth inhibition concentration (TGI) in the test on 786-0 renal, with RXF 393 renal, in the test on UACC-257 melanoma, in the test on SK-MEL-5 melanoma, with NCI-H226 lung and in the test on CCRF-CEM leukemia was greater than 100 µM in each case. The molecule also came in with a total growth inhibition concentration (TGI) with NCI-H23 lung greater than 100 µM.
Turning to `CCCCCCCCCCCCCCC(O)C1CCC(C(O)CCC(O)CCCCCC(O)CC2=CC(C)OC2=O)O1` (stereo not given), the total growth inhibition concentration (TGI) is 8.87 µM with 786-0 renal; 2.94 µM in the test with UACC-257 melanoma; 2.3 µM in the test on SK-MEL-5 melanoma; 7.27 µM in the test on NCI-H226 lung; 5.12 µM in the test on CCRF-CEM leukemia; 12.1 µM with NCI-H23 lung.
Turning to `N[C@H](C(=O)O)[C@@H](Cl)CC(=O)O`, the TGI with 786-0 renal, with RXF 393 renal, in the test on UACC-257 melanoma, in the test on SK-MEL-5 melanoma, with NCI-H226 lung and in the test on CCRF-CEM leukemia was greater than 100 µM in each case. Besides, the TGI in the test on NCI-H23 lung was greater than 100 µM.
With `Cc1ccc([N+](=O)[O-])cc1NC(=O)C(=O)C1CCC2=C(Sc3ccccc3N2)C1=O` (stereo not given), the concentration for total growth inhibition (TGI) in the test with 786-0 renal, in the test with RXF 393 renal, in the test on UACC-257 melanoma, with SK-MEL-5 melanoma, in the test with NCI-H226 lung and in the test on CCRF-CEM leukemia was greater than 100 µM throughout. The TGI in the test with NCI-H23 lung, with PC-3 prostate and with NCI/ADR-RES ovarian was greater than 100 µM each time.
As to `COC(=O)C1=C(c2cc(OC)c(OC)c(OC)c2)O[C@H](c2ccc3c(c2)OCO3)[C@H]1COC(C)=O`, the total growth inhibition concentration (TGI) was 78.4 µM in the test on 786-0 renal; greater than 100 µM with UACC-257 melanoma; 29.8 µM in the test on SK-MEL-5 melanoma; greater than 100 µM in the test with NCI-H226 lung; greater than 100 µM in the test with CCRF-CEM leukemia; 57.1 µM with NCI-H23 lung.
